Patent US20230106864A1, “COMPOSITIONS AND METHODS FOR THE TREATMENT OF INTRACELLULAR BACTERIAL INFECTIONS” (Endolytix Technology, Inc., priority 2020, published 2023)

System: M. abscessus
Experiment: Cell growth assay of M. abscessus with ABlα plus antibiotic, Fractional Inhibitory Concentration (FIC) index
Format: cell-based, Mycobacterium abscessus
Conditions: antibiotic in combination with ABlα; FIG. 5

| SMILES | effect on attenuation of M. abscessus growth by FIC index |
| --- | --- |
| C[C@@H](O)[C@H]1C(=O)N2C(C(=O)[O-])=C(SC3Cn4cnc[n+]4C3)[C@H](C)[C@H]12 (stereo partly drawn) [biapenem] | synergistic |
| NCC[C@H](O)C(=O)N[C@@H]1C[C@H](N)[C@@H](O[C@H]2O[C@H](CN)[C@@H](O)[C@H](O)[C@H]2O)[C@H](O)[C@H]1O[C@H]1O[C@H](CO)[C@@H](O)[C@H](N)[C@H]1O [amikacin] | synergistic |
| CO[C@@]1(NC(=O)Cc2cccs2)C(=O)N2C(C(=O)O)=C(COC(N)=O)CS[C@@H]21 [cefoxitin] | synergistic |
